Here are results for 6 molecules from article PMC10061512 (ACS Omega, 2023).

One series has as its target eqBChE (Equus caballus, UniProt P81908). The series is described as follows: BChE inhibition and enzyme kinetics, Ellman assay. The format is biochemical, equine. Background: Ellman's reagent forms a yellow product with free thiols.
For series [1] the following is noted: PAMPA–BBB. On the technique in general: The PAMPA barrier holds no transporters, so it reflects passive diffusion.
Series [2] addresses T1, hBACE-1 (Homo sapiens, UniProt P56817). Conditions: Lineweaver–Burk double-reciprocal plot.
The target in the next series is EeAChE (Electrophorus electricus, UniProt O42275). The series is described as follows: AChE inhibition and enzyme kinetics, Ellman assay. The format is biochemical, electric eel. Conditions: for IC50: IC50 (μM) ± SD EeAChE, Ellman assay.
Sequence of EeAChE (O42275 24-633): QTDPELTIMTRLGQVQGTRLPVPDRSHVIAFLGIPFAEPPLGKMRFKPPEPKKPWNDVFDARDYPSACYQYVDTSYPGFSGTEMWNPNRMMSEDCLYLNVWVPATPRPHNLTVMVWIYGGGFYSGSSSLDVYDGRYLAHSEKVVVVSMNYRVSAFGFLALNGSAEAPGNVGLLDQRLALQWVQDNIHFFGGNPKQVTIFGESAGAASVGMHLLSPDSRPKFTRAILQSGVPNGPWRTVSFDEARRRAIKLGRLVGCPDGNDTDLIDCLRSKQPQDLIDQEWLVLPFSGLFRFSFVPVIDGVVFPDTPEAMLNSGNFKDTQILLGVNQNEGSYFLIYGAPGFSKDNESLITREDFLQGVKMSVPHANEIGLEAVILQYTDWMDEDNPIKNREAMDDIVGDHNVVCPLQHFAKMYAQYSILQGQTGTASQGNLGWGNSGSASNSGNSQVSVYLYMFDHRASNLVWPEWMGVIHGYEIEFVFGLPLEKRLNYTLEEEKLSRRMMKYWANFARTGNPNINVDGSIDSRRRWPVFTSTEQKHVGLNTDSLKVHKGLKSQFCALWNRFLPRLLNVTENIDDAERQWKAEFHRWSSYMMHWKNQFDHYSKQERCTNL
In series [3] the target is T1, hBACE-1. In words: biochemical.
A short description of a further series: in vitro. Conditions: pig, PAMPA, pH 7.4.
The target of the next series is amyloid β 1–42 peptide (Homo sapiens, UniProt P05067). In words: Aβ-42 self-aggregation inhibition assay. The format is biochemical. Particulars: read-out: inhibition of self-aggregation of Aβ1–42 monomers.
Sequence of amyloid β 1–42 peptide (P05067 672-713): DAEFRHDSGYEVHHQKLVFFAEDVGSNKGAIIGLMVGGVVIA
The mark [4] stands for this setting: Lineweaver–Burk double-reciprocal plot.

Each structure is given as a SMILES string.

Sequence of eqBChE (P81908 whole entry, the tested form may be a part): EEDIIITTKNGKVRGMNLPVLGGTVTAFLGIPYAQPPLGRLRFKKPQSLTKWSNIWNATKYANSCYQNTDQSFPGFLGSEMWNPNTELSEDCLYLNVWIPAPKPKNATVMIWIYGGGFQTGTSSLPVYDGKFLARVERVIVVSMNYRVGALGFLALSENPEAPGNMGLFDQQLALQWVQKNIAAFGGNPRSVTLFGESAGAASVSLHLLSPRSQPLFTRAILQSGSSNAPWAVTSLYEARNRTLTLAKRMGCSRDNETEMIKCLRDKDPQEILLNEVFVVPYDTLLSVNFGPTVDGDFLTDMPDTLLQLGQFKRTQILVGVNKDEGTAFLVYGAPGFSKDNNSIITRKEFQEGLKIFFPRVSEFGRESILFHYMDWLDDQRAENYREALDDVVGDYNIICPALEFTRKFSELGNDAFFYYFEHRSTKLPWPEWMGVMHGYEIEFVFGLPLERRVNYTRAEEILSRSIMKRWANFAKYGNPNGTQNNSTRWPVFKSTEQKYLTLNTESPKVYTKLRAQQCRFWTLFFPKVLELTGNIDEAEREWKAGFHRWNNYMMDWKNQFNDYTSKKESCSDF
T1 sequence (P56817 46-501): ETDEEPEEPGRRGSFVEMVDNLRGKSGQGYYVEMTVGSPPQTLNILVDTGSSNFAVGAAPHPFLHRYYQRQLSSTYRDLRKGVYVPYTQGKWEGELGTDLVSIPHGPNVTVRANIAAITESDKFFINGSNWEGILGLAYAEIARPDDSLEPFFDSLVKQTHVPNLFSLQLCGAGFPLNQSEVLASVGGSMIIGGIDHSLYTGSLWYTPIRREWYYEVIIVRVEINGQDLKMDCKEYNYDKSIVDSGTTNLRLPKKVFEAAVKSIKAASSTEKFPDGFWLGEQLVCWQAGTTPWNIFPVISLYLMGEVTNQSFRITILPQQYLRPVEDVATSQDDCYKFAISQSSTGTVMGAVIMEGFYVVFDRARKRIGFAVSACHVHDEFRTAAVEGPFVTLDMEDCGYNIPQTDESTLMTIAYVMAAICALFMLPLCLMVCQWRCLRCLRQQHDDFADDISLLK

The IC50 is the concentration that gives 50% inhibition. In general, Ki refers to a dissociation constant, usually derived from enzyme kinetics or from competition with a known ligand. Read a high Ki as a looser hold on the target. As usually defined, the Papp is the rate of passage across a membrane or cell layer, normalised by area and donor concentration. A higher Papp goes with fast passage. By inhibition is commonly meant the change of the read-out against control, counted positive when it falls. As to `COc1cc(Cn2cc(COc3ccc4ccc(=O)oc4c3C(C)=O)nn2)cc(OC)c1` [10b, 8-Acetyl-7-((1-(3,5-dimethoxybenzyl)-1H-1,2,3-triazol-4-yl)methoxy)-2H-chromen-2-one], the figures for the IC50 on eqBChE and against EeAChE were 3.26 ± 0.13 µM and 2.57 ± 0.31 µM, respectively. Besides, the Ki on eqBChE was 3.5 µM; at EeAChE it was 0.27 µM; on hBACE-1 [3], 7 µM. Further, the “mode of inhibition, BChE” value on eqBChE (setting [4]) is reported as “mixed type”. Besides, the “prediction of CNS permeation” value in series [1] is on record as “CNS+”. The “mode of inhibition, BACE-1” value at hBACE-1 [2] was “mixed type”. In addition, at EeAChE (10b vs 19b), the “fold difference in AChE inhibition activity of 10b vs 19b” value was 20 fold. In addition, the “mode of inhibition, AChE” value at EeAChE (setting [4]) was “noncompetitive”. In “in vitro”, this molecule showed a Papp of 5.68 ± 1.1 ×10⁻⁶ cm/s. For the same molecule, on amyloid β 1–42 peptide, the inhibition at 10 µM turned out to be 37%.
With `O=c1ccc2ccc(OCc3cn(Cc4ccccc4OC(F)(F)F)nn3)cc2o1` [19d, 7-((1-(2-(Trifluoromethoxy)benzyl)-1H-1,2,3-triazol-4-yl)methoxy)-2H-chromen-2-one], the IC50 on eqBChE was determined as 97.2 ± 1.29 µM; against EeAChE, 52.54 ± 0.4 µM; on hBACE-1 [3] it was 172.8 ± 0.66 µM.
For `O=c1cc(O)c2ccccc2o1` [compound 5, 4-hydroxycoumarin], in that order: 167 ± 5.63 µM, 139 ± 1.85 µM and 169 ± 7.67 µM.
For `Cc1cc(=O)oc2cc(O)c(O)cc12` [compound 11, 4-methyl-6,7-dihydroxycoumarin], in that order: 148 ± 5.46 µM, 68.1 ± 4.05 µM and 105 ± 3.48 µM.
The like results for `COc1cc2c(C)cc(=O)oc2cc1O` [compound 14, 7-Hydroxy-6-methoxy-4-methyl-2H-chromen-2-one] were, in that order, 146 ± 4.91 µM, 89.1 ± 3.51 µM and 91.1 ± 2.41 µM.
Consider `COc1cc(/C=C/C(=O)CC(=O)/C=C/c2ccc(O)c(OC)c2)ccc1O` [curcumin, reference compound], for which the inhibition at 10 µM at amyloid β 1–42 peptide was 81%.
